Measured values: the NIST ThermoML archive (doi:10.1016/j.fluid.2017.06.022)

Test: xn = mol fraction of the nth substance listed
Settings: Liquid, Bellows volumetry

C=CC [propene] + Cc1ccccc1
Settings | mass density [kg/m3]
295.7 K, 700 kPa, x1 = 0.53 | 679.7
295.7 K, 1000 kPa, x1 = 0.53 | 680.5
295.7 K, 1400 kPa, x1 = 0.53 | 681.2
295.7 K, 1900 kPa, x1 = 0.53 | 681.6
295.7 K, 2300 kPa, x1 = 0.53 | 682.4
295.7 K, 2900 kPa, x1 = 0.53 | 683.2
295.7 K, 3400 kPa, x1 = 0.53 | 684
295.7 K, 3600 kPa, x1 = 0.53 | 684
295.7 K, 5200 kPa, x1 = 0.53 | 685.5
295.7 K, 7300 kPa, x1 = 0.53 | 688.3
295.7 K, 8600 kPa, x1 = 0.53 | 689.5
295.7 K, 10700 kPa, x1 = 0.53 | 691.9
295.7 K, 13500 kPa, x1 = 0.53 | 694.7
295.7 K, 23900 kPa, x1 = 0.53 | 704.6
295.7 K, 31000 kPa, x1 = 0.53 | 710.9
295.7 K, 37900 kPa, x1 = 0.53 | 716
295.7 K, 44100 kPa, x1 = 0.53 | 720.7
295.7 K, 51800 kPa, x1 = 0.53 | 726.4
295.7 K, 58300 kPa, x1 = 0.53 | 730.4
295.7 K, 63200 kPa, x1 = 0.53 | 733.6
295.7 K, 67000 kPa, x1 = 0.53 | 735.9
295.9 K, 200 kPa, x1 = 0.1159 | 797.6
295.9 K, 300 kPa, x1 = 0.1159 | 798.9
295.9 K, 600 kPa, x1 = 0.1159 | 799.5
295.9 K, 1300 kPa, x1 = 0.1159 | 800.1
295.9 K, 2000 kPa, x1 = 0.1159 | 800.7
295.9 K, 3500 kPa, x1 = 0.1159 | 802
295.9 K, 7200 kPa, x1 = 0.1159 | 805.2
295.9 K, 10200 kPa, x1 = 0.1159 | 807.7
295.9 K, 13500 kPa, x1 = 0.1159 | 810.3
296.4 K, 1000 kPa, x1 = 0.7612 | 606.8
296.4 K, 1400 kPa, x1 = 0.7612 | 610
296.4 K, 2200 kPa, x1 = 0.7612 | 611.2
296.4 K, 3300 kPa, x1 = 0.7612 | 613.2
296.4 K, 5200 kPa, x1 = 0.7612 | 616.4
296.4 K, 6900 kPa, x1 = 0.7612 | 619.3
296.4 K, 10300 kPa, x1 = 0.7612 | 624.6
296.4 K, 10400 kPa, x1 = 0.7612 | 624.6
296.4 K, 13800 kPa, x1 = 0.7612 | 629.7
296.4 K, 17200 kPa, x1 = 0.7612 | 634.4
296.4 K, 24100 kPa, x1 = 0.7612 | 643.5
296.4 K, 31100 kPa, x1 = 0.7612 | 652.1
296.4 K, 37700 kPa, x1 = 0.7612 | 659.4
296.4 K, 44500 kPa, x1 = 0.7612 | 666
296.4 K, 51400 kPa, x1 = 0.7612 | 672.7
296.4 K, 57800 kPa, x1 = 0.7612 | 678
296.4 K, 62900 kPa, x1 = 0.7612 | 682
296.4 K, 66900 kPa, x1 = 0.7612 | 685
324.6 K, 1700 kPa, x1 = 0.7612 | 572
324.6 K, 1900 kPa, x1 = 0.7612 | 572.3
324.6 K, 2600 kPa, x1 = 0.7612 | 574.4
324.6 K, 3600 kPa, x1 = 0.7612 | 576.9
324.6 K, 5300 kPa, x1 = 0.7612 | 580.5
324.6 K, 7000 kPa, x1 = 0.7612 | 584.1
324.6 K, 10500 kPa, x1 = 0.7612 | 591.1
324.6 K, 17400 kPa, x1 = 0.7612 | 603.7
324.6 K, 24200 kPa, x1 = 0.7612 | 614.4
324.6 K, 30900 kPa, x1 = 0.7612 | 623.8
324.6 K, 37800 kPa, x1 = 0.7612 | 632.7
324.6 K, 44500 kPa, x1 = 0.7612 | 640.5
324.6 K, 51500 kPa, x1 = 0.7612 | 648.4
324.6 K, 58400 kPa, x1 = 0.7612 | 655.7
324.6 K, 63100 kPa, x1 = 0.7612 | 660.3
324.6 K, 67000 kPa, x1 = 0.7612 | 664.1
324.8 K, 300 kPa, x1 = 0.1159 | 771
324.8 K, 600 kPa, x1 = 0.1159 | 771.6
324.8 K, 1100 kPa, x1 = 0.1159 | 772.2
324.8 K, 1600 kPa, x1 = 0.1159 | 772.8
324.8 K, 2000 kPa, x1 = 0.1159 | 773.4
324.8 K, 2500 kPa, x1 = 0.1159 | 774
324.8 K, 3300 kPa, x1 = 0.1159 | 774.6
324.8 K, 5000 kPa, x1 = 0.1159 | 776.3
324.8 K, 7000 kPa, x1 = 0.1159 | 778.7
324.8 K, 10200 kPa, x1 = 0.1159 | 781.7
324.8 K, 13500 kPa, x1 = 0.1159 | 784.7
324.8 K, 16900 kPa, x1 = 0.1159 | 787.7
324.8 K, 20400 kPa, x1 = 0.1159 | 791.4
324.8 K, 23600 kPa, x1 = 0.1159 | 793.9
324.8 K, 31300 kPa, x1 = 0.1159 | 800.7
324.8 K, 37800 kPa, x1 = 0.1159 | 805.8
374.3 K, 3700 kPa, x1 = 0.7612 | 493.5
374.3 K, 3800 kPa, x1 = 0.7612 | 494.1
374.3 K, 5300 kPa, x1 = 0.7612 | 503.1
374.3 K, 6900 kPa, x1 = 0.7612 | 511.6
374.3 K, 8400 kPa, x1 = 0.7612 | 518.3
374.3 K, 10400 kPa, x1 = 0.7612 | 526
374.3 K, 17200 kPa, x1 = 0.7612 | 547.4
374.3 K, 23900 kPa, x1 = 0.7612 | 562.2
374.3 K, 30800 kPa, x1 = 0.7612 | 574.7
374.3 K, 37700 kPa, x1 = 0.7612 | 586.8
374.3 K, 44200 kPa, x1 = 0.7612 | 596.6
375.3 K, 700 kPa, x1 = 0.1159 | 723.9
375.3 K, 900 kPa, x1 = 0.1159 | 724.4
375.3 K, 1400 kPa, x1 = 0.1159 | 725.5
375.3 K, 2000 kPa, x1 = 0.1159 | 726.5
375.3 K, 2500 kPa, x1 = 0.1159 | 727.6
375.3 K, 3400 kPa, x1 = 0.1159 | 728.6
375.3 K, 5200 kPa, x1 = 0.1159 | 731.2
375.3 K, 6900 kPa, x1 = 0.1159 | 733.8
375.3 K, 10100 kPa, x1 = 0.1159 | 737.6
375.3 K, 17200 kPa, x1 = 0.1159 | 746.2
375.3 K, 23700 kPa, x1 = 0.1159 | 753.4
375.3 K, 30800 kPa, x1 = 0.1159 | 760.7
375.3 K, 37600 kPa, x1 = 0.1159 | 767
375.4 K, 2600 kPa, x1 = 0.53 | 588.6
375.4 K, 2900 kPa, x1 = 0.53 | 589.8
375.4 K, 4300 kPa, x1 = 0.53 | 593.6
375.4 K, 6900 kPa, x1 = 0.53 | 600.6
375.4 K, 9200 kPa, x1 = 0.53 | 607.4
375.4 K, 10500 kPa, x1 = 0.53 | 609.9
375.4 K, 17900 kPa, x1 = 0.53 | 622.3
375.4 K, 23800 kPa, x1 = 0.53 | 632
375.4 K, 24100 kPa, x1 = 0.53 | 631.5
375.4 K, 30900 kPa, x1 = 0.53 | 641.7
375.4 K, 37900 kPa, x1 = 0.53 | 651.5
375.4 K, 44800 kPa, x1 = 0.53 | 659.4
375.4 K, 51200 kPa, x1 = 0.53 | 666.4
375.4 K, 58800 kPa, x1 = 0.53 | 674.3
375.4 K, 63200 kPa, x1 = 0.53 | 678.1
375.4 K, 67400 kPa, x1 = 0.53 | 682
